US20020045191A1, “Inhibition of the SRC kinase family pathway as a method of treating HBV infection and hepatocellular carcinoma” (priority 2000, published 2002)

Tests used:
Pyk2 [1] = experiment: Pyk2 Y-402 phosphorylation immunoblot, Chang cells; type: cell-based, human; conditions: for HBx activation of Pyk2: 0.5 mM EGTA 2 h, 50 μM BAPTA-AM 2 h, 3 μM CsA 4 h
Experimental: FIG. 9. Chang cells or HepG2 cells were transfected with expression vectors pAdCMVX (HBx), pAdCMVXo (HBx−), pPKM, or empty vectors pAdCMV or pPRK5. (A) Chang cells were treated with 50 μM BAPTA-AM for 2 h, equal protein amounts resolved by gel-electrophoresis and immunoblotted with antibodies to Pyk2 or activated Y-402 phosphorylated Pyk2.
(§1) TPA treatment was for […] using 20 ng/ml. […] (C) Chang cells transfected with vector or pAdCMVX were treated 2h with 0.5 mM or 3 mM EGTA, and Pyk2 examined by immunoblot. (D) HepG2 cells were transfected with HBV, HBx(−) HBV genomic DNA or vector, complemented by 2 μg plasmid pAdCMVX. Cytoplasmic HBV core particles were isolated from equal numbers of cells (Klein, et al. 1997, EMBOJ 18: 5019-5027) and viral DNA replication intermediates detected by Southern blot as described (Klein, et al. 1997, EMBOJ 18: 5019-5027). The smear represents 4 kb (mature double-stranded DNA) to 2 kb (first-strand single-stranded DNA). Northern blot analysis was carried out using poly(A+) RNA extracted from equal numbers of cells. (E) Southern and Northern blot analyses were performed on HepG2 cells transfected as above with or without pPKM or PPRKS. Typical experiments are shown.
Studies determined whether HBx acts on intracellular calcium to activate Pyk2. […] HBx activation of Pyk2 therefore involves cytosolic calcium action. Studies next determined whether HBx acts on calcium channels in the endoplasmic reticulum (ER), mitochondria or plasma membrane (PM) for its activity.

c-Src = c-Src immunoprecipitation and in vitro kinase assay (auto-phosphorylation, enolase trans-phosphorylation), NIH 3T3 cells; type: cell-based; conditions: serum-starved NIH 3T3 cells, PDGF (100 ng/ml) for 5 minutes
Experimental: FIG. 1. Serum-starved NIH 3T3 cells were infected with AdCMV-X or -Xo viruses, c-Src or c-Fyn was immunoprecipitated, the pellet washed and assayed by incubation with the substrate enolase and [γ-^32P] ATP. Products were resolved by SDS-10%-PAGE then visualized and quantitiated by PhosphorImage analysis.
c-Src (FIG. 1A) or c-Fyn (FIG. 1B) were immunoprecipitated 8 h p.i. from NIH 3T3 cell lysates expressing HBx or HBxo. Where indicated, cells were incubated with PDGF (100 ng/ml) for 5 min.
Src kinase assays were carried out essentially as described (Kypta et al., 1990, Cell 62:481-492). Briefly, NIH 3T3 or Chang cells were lysed in buffer containing 1% NP-40, 150 mM NaCl, 20 mM Tris HCl pH 8, 2.5 mM EDTA, 1 mM Na3VO4, 50 mM NaF, 1 mM PMSF, 10 μg/ml aprotinin, and 10 μg/ml leupeptin. Src and Fyn kinase activity were measured by immunoprecipitating either Src (1 μg anti-Src antibodies) or Fyn (1 μg/ml anti-Fyn antibodies) from equal amounts of cell lysate. […] For the reactions containing the Src peptide substrate, TCA was added to a final concentration of 20%, an aliquot was spotted onto phosphocellulose paper (UBI), the filters were washed 3×5 minutes in 0.75% phosphoric acid and once in acetone, dried and analyzed by scintillation counting. […]

HBV [2] = experiment: HBV DNA replication in cytoplasmic core particles, Southern blot, HepG2 cells; type: cell-based, hepatitis B virus; conditions: for increase of reverse transcription and DNA replication of (HBx−)HBV: HepG2 cells, 4 d, valinomycin 1 nM, thapsigargin 20 nM
Excerpt: Cytoplasmic viral core particles were isolated and HBV DNA replication and mRNA levels detected by Southern and Northern blot hybridization.
The requirement for cytosolic calcium and HBx activation of Pyk2 in HBV replication was examined. […] HepG2 cells were transfected with vector alone, wild type HBV genomic DNA, or HBx(−) genomic DNA, cytoplasmic viral core particles, the structures in which viral DNA replication takes place, were isolated and the level of viral DNA replication was examined (FIG. 9D).
The requirement for cytosolic calcium in HBx-dependent viral replication was investigated.

HBV [3] = experiment: HBV mRNA levels, Northern blot, HepG2 cells; type: cell-based, hepatitis B virus; conditions: for cytoplasmic levels of HBV pgRNA and HBsAg mRNAs: HepG2 cells, 4 d, valinomycin 1 nM, thapsigargin 20 nM
Experimental: as §1
FIG. 10. […] Products were resolved by electrophoresis and detected by autoradiography. Typical results are shown.
(§2) FIG. 11. (A) HepG2 cells were with HBV or HBx(−) HBV genomic DNA. At 24 h post-transfection cells were treated with 1 nM valinomycin (val.) or 20 nM thapsigargin (thap.) for 4 d, cytoplasmic core particles were isolated from equal numbers of cells and viral replication examined by Southern blot hybridization. HBV transcription was analyzed by Northern blot hybridization. (B) Nontransfected HepG2 cells 5were treated with valinomycin or thapsigargin as above, and the abundance of Pyk2 or activated Pyk2 Y-402 phosphorylation determined by immunoblot
The requirement for cytosolic calcium and HBx activation of Pyk2 in HBV replication was examined. […]
Studies next determined whether HBx activity can be replaced by ionophoric agents that increase cytosolic calcium. […]

Pyk2 [4] = experiment: Pyk2 activity (Y-402 phosphorylation immunoblot) in nontransfected HepG2 cells; type: cell-based, human; conditions: valinomycin 1 nM, thapsigargin 20 nM
Experimental: as §2
Studies next determined whether HBx activity can be replaced by ionophoric agents that increase cytosolic calcium. Cells were transfected with plasmids expressing wild type HBV or HBx(−) genomes and treated for 4 d with low, nontoxic levels of calcium mobilizing agents valinomycin (1 nM) or thapsigargin (20 nM). Reverse transcription and DNA replication of (HBx−)HBV were increased 20 fold by valinomycin to wild type (HBx+) levels, and 10 fold by thapsigargin (FIG. 11A).

[5] = Chang cells, high concentration of EGTA (3 mM)

Compound | HBx activation of Pyk2 (Pyk2 [1]; Chang cells) | increase of reverse transcription and DNA replication of (HBx−)HBV (HBV [2]) | cytoplasmic levels of HBV pgRNA and HBsAg mRNAs (HBV [3]) | stimulation of Pyk2 activity (Pyk2 [4]) | other results
O=C(O)CN(CCOCCOCCN(CC(=O)O)CC(=O)O)CC(=O)O [EGTA] | no effect | – | – | – | TPA activation of Pyk2 phosphorylation (Pyk2 [1]; [5]): did not block; activation of Pyk2 by HBx (Pyk2 [1]; [5]): partially inhibited
PDGF | – | – | – | – | activation of c-Src (auto- and trans-phosphorylation) (c-Src): 3-4 fold
CC(C)[C@@H]1NC(=O)[C@H](C)OC(=O)[C@@H](C(C)C)NC(=O)[C@@H](C(C)C)OC(=O)[C@H](C(C)C)NC(=O)[C@H](C)OC(=O)[C@@H](C(C)C)NC(=O)[C@@H](C(C)C)OC(=O)[C@H](C(C)C)NC(=O)[C@H](C)OC(=O)[C@@H](C(C)C)NC(=O)[C@@H](C(C)C)OC1=O [valinomycin] | – | 20 fold | Neither agent increased | 5 fold | –
C/C=C(/C)C(=O)O[C@H]1C(C)=C2[C@H]([C@@H]1OC(=O)CCCCCCC)[C@@](C)(OC(C)=O)C[C@H](OC(=O)CCC)[C@@]1(O)[C@H]2OC(=O)[C@@]1(C)O [thapsigargin] | – | 10 fold | Neither agent increased | 3 fold | –
CC(=O)OCOC(=O)CN(CC(=O)OCOC(C)=O)c1ccccc1OCCOc1ccccc1N(CC(=O)OCOC(C)=O)CC(=O)OCOC(C)=O [BAPTA-AM] | prevented | – | – | – | HBx-induced Pyk2 phosphorylation at Y-402 (Pyk2 [1]; HBx transfected Chang cells, 50 μM (2 times IC50) for 2 h): prevented; Pyk2 levels (Pyk2 [1]; HBx transfected Chang cells, 50 μM for 2 h): without altering; impairment of HBV viral DNA replication (HBV [2]; HBV genome transfected HepG2 cells, low levels of BAPTA-AM (2.5 μM or 25 μM) for 4 d): 10 fold; HBV mRNA levels (HBV [3]; HBV genome transfected HepG2 cells, low levels of BAPTA-AM for 4 d): without strongly reducing
